Consider five compounds from patent publication US8227483B2, “Polymorphs of 6-beta-naltrexol” (Mallinckrodt LLC, priority 2008, dated 2012).

A short description of data set [1]: resistance to degradation in air. Type of data set: physicochemical. The note with it: compared with Form IB.
Data set [2] can be described thus: solubility in a mixture of alcohol and water. Type of data set: physicochemical. The note with it: compared with Form IB.
Data set [3] can be described thus: slurry experiments (stability of the crystalline forms). Type of data set: physicochemical. Here is the method:
Slurry Experiments. The stability of the crystalline forms was analyzed using slurry experiments. A portion of the solvent of interest was saturated with 6-beta-naltrexol base or 6-beta-naltrexol hydrochloride in a small vial. Additional 6-beta-naltrexol base or 6-beta-naltrexol hydrochloride was then added to the vial, and the resulting slurry was stirred using a magnetic stir bar.

For data set [4] the following is noted: in vivo; compared with naloxone and naltrexone; cited from earlier work.
The subject of the next data set is acute dependence model. Particulars: high doses; cited from earlier work.
A further data set has as its system chronic dependence model. The note with it: cited from earlier work.
Another data set can be described thus: water vapor sorption. In kind it is physicochemical. Here is the method: Water Vapor Sorption. Data were collected with a SGA-100 water vapor sorption balance (VTI Corporation, Hialeah, Fla.). A portion of the selected sample was weighed into a platinum sample pan and placed into the instrument. The sample was cycled from low (5%) relative humidity (RH) to high (95%) RH to low humidity (i.e., sorption and desorption events) at a constant temperature of 25° C., in 5% RH intervals. The sample was held at each interval until the equilibrium condition was met (i.e., 0.0005% for 3 min, with a maximum of 600 min).

Data set [5] is described as follows: relative stability of the crystalline forms. Type of data set: physicochemical. The note with it: dihydrate form of Form IIIS. The text has this:
Above this humidity, Form IIIS absorbed approximately 1.4%-1.5% water at 95% RH.

As for `Oc1ccc2c3c1O[C@H]1[C@H](O)CC[C@@]4(O)[C@@H](C2)N(CC2CC2)CC[C@]314` [Form IIB, 6-beta-naltrexol base], the “resistance to degradation in air” value in data set [1] is on record as “more resistant to degradation in air than Form IB”. Moreover, the solubility result in data set [2] was “greater solubility in a mixture of alcohol and water than Form IB”.

As for `Cl.Oc1ccc2c3c1O[C@H]1[C@H](O)CC[C@@]4(O)[C@@H](C2)N(CC2CC2)CC[C@]314` [Form IIS, 6-beta-naltrexol hydrochloride], the “time the form was stable in slurry” value in data set [3] (isopropyl alcohol slurry) was “at least 8 days”.

`Oc1ccc2c3c1OC1C(O)CC[C@@]4(O)[C@@H](C2)N(CC2CC2)CC[C@]314` (stereo partly drawn) [6-beta-naltrexol, morphinan-3,6,14-triol,17-(cyclopropylmethyl)-4,5-epoxy]: in data set [4], the duration of action result was “longer duration of action than naloxone and naltrexone”. In the data set with acute dependence model, the withdrawal precipitated result was “only minimal withdrawal”. Further, the “fold less potent than naloxone in precipitating withdrawal” value in the data set with chronic dependence model (relative to naloxone) is on record as ~30 fold. Also, in the data set with chronic dependence model (relative to naltrexone), the “fold less potent than naltrexone in precipitating withdrawal” value was “approximately 77 fold”.

Consider `Cl.Oc1ccc2c3c1O[C@H]1[C@H](O)CC[C@@]4(O)[C@@H](C2)N(CC2CC2)CC[C@]314` [Form IVS, 6-beta-naltrexol hydrochloride], for which the “time the form was stable in slurry” value in data set [3] (ethyl alcohol slurry) is given as “at least 15 days”.

`Cl.Oc1ccc2c3c1O[C@H]1[C@H](O)CC[C@@]4(O)[C@@H](C2)N(CC2CC2)CC[C@]314` [Form IIIS, 6-beta-naltrexol hydrochloride]: the stability to humidity result in the data set “water vapor sorption” (above 15% RH, 25° C.) is “reasonably stable up to approximately 90% RH”. The “solid form at the conclusion of the sorption experiment (pXRD)” value in the data set “water vapor sorption” (after sorption/desorption cycle 5%-95%-5% RH) was “still comprised predominately Form IIIS”. Also, in the data set “water vapor sorption” (at 95% RH, 25° C.), the water absorbed is given as 1.4%-1.5%. For the same compound, in “water vapor sorption” (desorption, 25° C.), the hysteresis during desorption result is reported as “minimal hysteresis”. Moreover, in the data set “water vapor sorption” (humidities below 15% RH, 25° C., of its original 8.9% water content), the water lost entry is recorded as “approximately 4.5%”. Further, in data set [5], the “relative stability among crystalline forms” value is reported as “most stable of all the crystalline forms of 6-beta-naltrexol hydrochloride”.
